Reference: patent US10399931B2, “Octahydroanthracene compound, preparation method and application thereof” (SHANDONG XINHUA PHARMACEUTICAL CO., LTD., priority 2016, dated 2019)

Columns and labels:
[1] = system: mice; experiment: LD50 test, single intragastric dose (preliminary safety evaluation); format: in vivo; conditions: 5000 mg/kg intragastric
[2] = system: SYP, PSD95 and GAP43; experiment: Western blot of synaptic-related proteins in APP/PS1 mice; format: in vivo
Experimental: After the behavioral experiment, the animals were anesthetized with an intraperitoneal injection of 3.5% chloral hydrate and cut off the heads quickly to take out the brains. The hippocampus and cortex of the brain were separated on ice, and then weighed and quickly frozen with liquid nitrogen, placed in a refrigerator at −80° C. for standby application.
The tissue lysate (5 μL PMSF protease inhibitor per mL of lysate) was added to the frozen brain tissue at a ratio of […] (6 mL/g tissue), and ultrasonically homogenized in an ice bath. After homogenization, the tissue homogenate was placed in crushed ice for 30 min, and then centrifuged at 12,000×g for 20 min at 4° C. The supernatant (about 200 μL) was taken and stored in a refrigerator at −80° C. for later use. A portion of the supernatant was taken for protein quantification.
According to the kit instruction, BCA working reagent was prepared by mixing reagent A with reagent B at a ratio of 50:1 thoroughly. The BCA working reagent was freshly prepared for use at room temperature with a stable period of 24 h. […] (5) The absorbance of the protein (at a wavelength of 540 nm) was determined by a microplate reader. (6) The standard curve was made by Excel, and the concentration of the detected protein was calculated based on the standard curve. […]

Compound: CC1(C)CCC(C)(C)c2c1cc1c(c2NC(=O)c2ccc(NC(=O)NCCN)cc2)C(C)(C)CCC1(C)C [OAB-14, 1-(2-amino) ethyl-3-{4-[(1,1,4,4,5,5,8,8-octamethyl-1,2,3,4,5,6,7,8-octahydro-9-anthryl)carbamoyl]phenyl} urea]
- Abnormalities in organs such as heart, liver, spleen and kidney [1]: no abnormalities were detected
- Adverse reactions observed with the naked eye [1]: no visible adverse reactions were observed
- Expression of synaptic-related proteins SYP, PSD95 and GAP43 ([2]; 100 mg/kg group): significantly increased
- Expression of synaptic-related proteins SYP, PSD95 and GAP43 ([2]; 200 mg/kg group): significantly increased
